Reference: patent US8471005B2 (Cephalon, Inc., priority 2008, dated 2013)
Like-named read-outs stand apart in the source and are kept apart here.

Legend:
[1] = target: T1, JAK2 (Homo sapiens, UniProt O60674); experiment: Recombinant Human JAK2 Kinase Assay (TRF); type: biochemical; settings: read-out: JAK2 Potency
T1 construct: host or cells: baculovirus expression system
Outline: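 Kinase activity of baculovirus-expressed JAK2 is followed on a surface-immobilised biotinylated peptide, with the reaction run for 20 min at room temperature in buffer containing 0.2 μM ATP and manganese. Phosphorylation is read with Eu-N1 PY100 antibody.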

[2] = target: T2, ALK (Homo sapiens, UniProt Q9UM73); experiment: ALK Kinase Assay (ELISA/TRF, PLC-γ substrate); type: biochemical; settings: read-out: ALK Potency
T2 construct: host or cells: baculovirus expression system
T2 sequence (Q9UM73 19-1620): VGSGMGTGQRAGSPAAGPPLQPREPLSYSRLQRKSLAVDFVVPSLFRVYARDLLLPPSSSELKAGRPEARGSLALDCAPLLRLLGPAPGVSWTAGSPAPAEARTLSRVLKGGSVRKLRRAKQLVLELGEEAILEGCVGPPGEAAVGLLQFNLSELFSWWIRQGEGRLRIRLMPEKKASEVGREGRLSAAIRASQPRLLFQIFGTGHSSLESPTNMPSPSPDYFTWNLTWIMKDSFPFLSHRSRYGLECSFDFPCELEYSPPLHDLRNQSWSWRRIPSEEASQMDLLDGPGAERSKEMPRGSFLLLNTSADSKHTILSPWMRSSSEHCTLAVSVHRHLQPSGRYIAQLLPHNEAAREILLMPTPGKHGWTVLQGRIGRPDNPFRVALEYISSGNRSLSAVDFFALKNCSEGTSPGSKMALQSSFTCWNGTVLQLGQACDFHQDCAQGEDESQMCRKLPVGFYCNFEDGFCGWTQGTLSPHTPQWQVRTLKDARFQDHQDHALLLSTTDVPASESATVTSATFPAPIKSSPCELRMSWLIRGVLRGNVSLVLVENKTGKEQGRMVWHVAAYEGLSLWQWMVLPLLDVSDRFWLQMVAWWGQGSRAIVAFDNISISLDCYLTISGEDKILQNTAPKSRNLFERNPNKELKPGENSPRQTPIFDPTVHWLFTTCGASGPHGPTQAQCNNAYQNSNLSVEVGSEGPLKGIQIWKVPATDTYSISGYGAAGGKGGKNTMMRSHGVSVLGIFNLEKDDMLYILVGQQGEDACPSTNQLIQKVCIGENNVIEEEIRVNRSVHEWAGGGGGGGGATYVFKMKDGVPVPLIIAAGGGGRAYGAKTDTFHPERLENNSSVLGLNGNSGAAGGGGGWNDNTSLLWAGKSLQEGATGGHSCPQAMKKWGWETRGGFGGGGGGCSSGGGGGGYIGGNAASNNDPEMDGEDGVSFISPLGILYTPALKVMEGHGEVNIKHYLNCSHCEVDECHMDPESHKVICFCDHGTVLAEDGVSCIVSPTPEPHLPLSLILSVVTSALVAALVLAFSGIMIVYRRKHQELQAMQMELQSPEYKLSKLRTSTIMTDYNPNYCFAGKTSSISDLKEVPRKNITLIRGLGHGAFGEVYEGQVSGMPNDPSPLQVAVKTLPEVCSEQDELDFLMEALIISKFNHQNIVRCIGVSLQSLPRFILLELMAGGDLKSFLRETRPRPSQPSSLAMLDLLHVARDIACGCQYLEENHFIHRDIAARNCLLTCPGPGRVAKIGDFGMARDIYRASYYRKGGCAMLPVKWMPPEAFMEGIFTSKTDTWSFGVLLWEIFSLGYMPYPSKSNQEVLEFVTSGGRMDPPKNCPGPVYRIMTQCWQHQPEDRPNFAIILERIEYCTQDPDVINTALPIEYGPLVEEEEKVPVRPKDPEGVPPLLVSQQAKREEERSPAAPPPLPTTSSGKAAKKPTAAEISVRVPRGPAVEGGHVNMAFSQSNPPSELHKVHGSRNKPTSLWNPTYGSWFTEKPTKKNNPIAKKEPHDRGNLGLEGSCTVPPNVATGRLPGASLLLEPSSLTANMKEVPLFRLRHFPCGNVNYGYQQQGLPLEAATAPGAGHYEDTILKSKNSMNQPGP
Outline: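 PLC-γ substrate coated at 10 μg/mL in TBS; reaction started with 30 ng/ml ALK, run 15 min at 37° C. Phosphoproduct detected by TRF with Eu-N1-labeled PT66 anti-phosphotyrosine antibody. IC50 from sigmoidal variable-slope fit of percent inhibition versus log concentration.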

[3] = JAK2 kinase inhibition, 0.2 μM ATP
[4] = ALK kinase inhibition, 1 μM ATP

T1 sequence (O60674 whole entry): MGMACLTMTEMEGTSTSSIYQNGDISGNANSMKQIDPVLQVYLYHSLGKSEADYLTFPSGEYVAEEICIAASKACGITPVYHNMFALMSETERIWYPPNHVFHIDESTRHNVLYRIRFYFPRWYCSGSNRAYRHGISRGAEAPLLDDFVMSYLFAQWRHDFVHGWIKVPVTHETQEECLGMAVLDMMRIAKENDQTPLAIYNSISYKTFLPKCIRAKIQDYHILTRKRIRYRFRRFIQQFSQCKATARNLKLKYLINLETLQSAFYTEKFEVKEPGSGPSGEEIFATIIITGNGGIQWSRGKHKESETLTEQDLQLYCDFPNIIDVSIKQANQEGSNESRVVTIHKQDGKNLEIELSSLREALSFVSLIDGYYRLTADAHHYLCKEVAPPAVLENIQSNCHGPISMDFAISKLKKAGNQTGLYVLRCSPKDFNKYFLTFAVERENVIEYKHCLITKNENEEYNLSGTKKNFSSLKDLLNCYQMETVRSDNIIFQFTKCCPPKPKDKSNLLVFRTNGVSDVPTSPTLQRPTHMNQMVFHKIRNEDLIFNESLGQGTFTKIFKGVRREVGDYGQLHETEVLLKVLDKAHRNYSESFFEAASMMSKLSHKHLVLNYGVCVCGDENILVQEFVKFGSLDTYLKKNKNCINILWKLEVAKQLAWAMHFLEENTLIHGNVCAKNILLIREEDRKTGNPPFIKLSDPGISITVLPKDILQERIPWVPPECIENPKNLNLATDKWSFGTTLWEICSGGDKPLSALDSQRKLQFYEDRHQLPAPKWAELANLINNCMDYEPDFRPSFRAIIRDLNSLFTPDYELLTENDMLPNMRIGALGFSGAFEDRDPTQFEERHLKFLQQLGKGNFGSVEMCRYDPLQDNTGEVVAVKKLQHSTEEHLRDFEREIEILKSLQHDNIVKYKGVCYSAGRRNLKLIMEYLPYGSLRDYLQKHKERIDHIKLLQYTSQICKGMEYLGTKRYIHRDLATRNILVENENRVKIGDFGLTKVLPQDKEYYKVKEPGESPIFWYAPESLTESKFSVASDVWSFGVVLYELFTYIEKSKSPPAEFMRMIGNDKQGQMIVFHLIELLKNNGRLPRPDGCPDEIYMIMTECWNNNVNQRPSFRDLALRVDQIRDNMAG

SMILES	IC50 [1, 3]	IC50 [2, 4]	IC50 ([1]; JAK2 Kinase Inhibition)	IC50 ([2]; ALK Kinase Inhibition)
COc1ccccc1-c1ccc2cnc(Nc3ccc4c(c3)CCN(CC(N)=O)C4)nn12 [Example 917, 2-{6-[7-(2-Methoxy-phenyl)-pyrrolo[2,1-f][1,2,4]triazin-2-ylamino]-3,4-dihydro-1H-isoquinolin-2-yl}-acetamide]	< 100 nM	100 to 1000 nM	–	–
COc1ccccc1-c1ccc2cnc(Nc3cccc(S(=O)(=O)N(C)C)c3)nn12 [Example 594, 3-[7-(2-Methoxy-phenyl)-pyrrolo[2,1-f][1,2,4]triazin-2-ylamino]-N,N-dimethyl-benzenesulfonamide]	< 100 nM	1000 to 10000 nM	–	–
COc1ncccc1-c1ccc2cnc(Nc3ccc4c(c3)CCN(CC(=O)N(C)C)CC4)nn12 [Example 1572]	–	–	< 100 nM	100 to 1000 nM
COCCOc1ncc2ccc(-c3cccc(Cl)c3)n2n1 [Example 190, 7-(3-Chloro-phenyl)-2-(2-methoxy-ethoxy)-pyrrolo[2,1-f][1,2,4]triazine]	–	–	< 100 nM	> 10000 nM
COc1cc([C@@H]2CCN(CCF)C[C@@H]2O)ccc1Nc1ncc2ccc(-c3ccccc3N(C)S(C)(=O)=O)n2n1 (racemic) [Example 843, (±)-N-[2-(2-{4-[(3R,4S)-1-(2-Fluoro-ethyl)-3-hydroxy-piperidin-4-yl]-2-methoxy-phenylamino}-pyrrolo[2,1-f][1,2,4]triazin-7-yl)-phenyl]-N-methyl-methanesulfonamide]	100 to 1000 nM	< 100 nM	–	–
COc1cc(C2(NC(=O)C(F)(F)F)CCC2)ccc1Nc1ncc2ccc(-c3ccccc3N(C)S(C)(=O)=O)n2n1 [Example 1254, 2,2,2-Trifluoro-N-[1-(4-{7-[2-(methanesulfonyl-methyl-amino)-phenyl]-pyrrolo[2,1-f][1,2,4]triazin-2-ylamino}-3-methoxy-phenyl)-cyclobutyl]-acetamide]	1000 to 10000 nM	100 to 1000 nM	–	–
CC(C)(C)NS(=O)(=O)c1cccc(-c2ccc3cnc(Nc4cncc(C(N)=O)c4)nn23)c1 [Example 665, 5-[7-(3-tert-Butylsulfamoyl-phenyl)-pyrrolo[2,1-f][1,2,4]triazin-2-ylamino]-nicotinamide]	< 100 nM	> 10000 nM	–	–
CC(=O)Nc1cccc(Nc2ncc3ccc(-c4cccc(NCCS(C)(=O)=O)c4)n3n2)c1 [Example 893, N-(3-{7-[3-(2-Methanesulfonyl-ethylamino)-phenyl]-pyrrolo[2,1-f][1,2,4]triazin-2-ylamino}-phenyl)-acetamide]	< 100 nM	1000 to 10000 nM	–	–
COc1ccc(-c2ccc3cnc(Nc4ccc5c(c4)N(C)CCO5)nn23)cn1 [Example 644, [7-(6-Methoxy-pyridin-3-yl)-pyrrolo[2,1-f][1,2,4]triazin-2-yl]-(4-methyl-3,4-dihydro-2H-benzo[1,4]oxazin-6-yl)-amine]	< 100 nM	1000 to 10000 nM	–	–
COc1ccc(-c2ccc3cnc(Nc4ccc(C5CCN(C)CC5)c(C)c4)nn23)cn1 [Example 941, [7-(6-Methoxy-pyridin-3-yl)-pyrrolo[2,1-f][1,2,4]triazin-2-yl]-[3-methyl-4-(1-methyl-piperidin-4-yl)-phenyl]-amine]	< 100 nM	< 100 nM	–	–
COc1cc(N2CCN(C[C@H](C)O)CC2)ccc1Nc1ncc2ccc(-c3ccccc3OC)n2n1 [Example 753, (S)-1-(4-{3-Methoxy-4-[7-(2-methoxy-phenyl)-pyrrolo[2,1-f][1,2,4]triazin-2-ylamino]-phenyl}-piperazin-1-yl)-propan-2-ol]	< 100 nM	< 100 nM	–	–
COc1cc(C2CCN(CC(N)=O)CC2)ccc1Nc1ncc2ccc(-c3ccncc3OC)n2n1 [Example 857, 2-(4-{3-Methoxy-4-[7-(3-methoxy-pyridin-4-yl)-pyrrolo[2,1-f][1,2,4]triazin-2-ylamino]-phenyl}-piperidin-1-yl)-acetamide]	100 to 1000 nM	< 100 nM	–	–
O=S(=O)(CC1CC1)c1cccc(-c2ccc3cnc(Nc4ccc5nc(C(F)(F)F)[nH]c5c4)nn23)c1 [Example 1318, [7-(3-Cyclopropylmethanesulfonyl-phenyl)-pyrrolo[2,1-f][1,2,4]triazin-2-yl]-(2-trifluoromethyl-3H-benzimidazol-5-yl)-amine]	< 100 nM	> 10000 nM	–	–
Cc1nc2cc(Nc3ncc4ccc(-c5cccc(S(C)(=O)=O)c5)n4n3)ccc2o1 [Example 599, [7-(3-Methanesulfonyl-phenyl)-pyrrolo[2,1-f][1,2,4]triazin-2-yl]-(2-methyl-benzoxazol-5-yl)-amine]	< 100 nM	1000 to 10000 nM	–	–
COc1ccc(-c2ccc3cnc(Nc4ccc(C5CCN(CC(N)=O)CC5)c(C)c4)nn23)cn1 [Example 934, 2-(4-{4-[7-(6-Methoxy-pyridin-3-yl)-pyrrolo[2,1-f][1,2,4]triazin-2-ylamino]-2-methyl-phenyl}-piperidin-1-yl)-acetamide]	< 100 nM	< 100 nM	–	–

The next lines start with the values.

IC50 [1, 3]	IC50 [2, 4]	IC50 ([1]; JAK2 Kinase Inhibition)	IC50 ([2]; ALK Kinase Inhibition)	SMILES
–	–	< 100 nM	> 10000 nM	COC(=O)c1cccc(-c2ccc3cnc(Nc4ccc(N5CCOCC5)cc4)nn23)c1 [Example 6, 3-[2-(4-Morpholin-4-yl-phenylamino)-pyrrolo[2,1-f][1,2,4]triazin-7-yl]-benzoic acid methyl ester]
–	–	< 100 nM	100 to 1000 nM	c1ccc(Sc2ccc3cnc(Nc4ccc(N5CCOCC5)cc4)nn23)cc1 [Example 97, (4-Morpholin-4-yl-phenyl)-(7-phenylsulfanyl-pyrrolo[2,1-f][1,2,4]triazin-2-yl)-amine]
< 100 nM	< 100 nM	–	–	COc1ccccc1-c1ccc2cnc(Nc3ccc(C4CCN(C(=O)N5CCN(C)CC5)CC4)cc3)nn12 [Example 501, (4-{4-[7-(2-Methoxy-phenyl)-pyrrolo[2,1-f][1,2,4]triazin-2-ylamino]-phenyl}-piperidin-1-yl)-(4-methyl-piperazin-1-yl)-methanone]
–	–	< 100 nM	100 to 1000 nM	Clc1cccc(-c2ccc3cnc(Nc4ccc(N5CCC(N6CCOCC6)CC5)cc4)nn23)c1 [Example 336, [7-(3-Chloro-phenyl)-pyrrolo[2,1-f][1,2,4]triazin-2-yl]-[4-(4-morpholin-4-yl-piperidin-1-yl)-phenyl]-amine]
–	–	< 100 nM	100 to 1000 nM	CS(=O)(=O)c1ccc(-c2ccc3cnc(Nc4cccc(N5CCN(CCO)CC5)c4)nn23)cc1 [Example 181, 2-(4-{3-[7-(4-Methanesulfonyl-phenyl)-pyrrolo[2,1-f][1,2,4]triazin-2-ylamino]-phenyl}-piperazin-1-yl)-ethanol]
< 100 nM	100 to 1000 nM	–	–	CN1CCN(c2ccc(Nc3ncc4ccc(-c5cccc(NS(C)(=O)=O)c5)n4n3)nc2)CC1 [Example 1194, N-(3-{2-[5-(4-Methyl-piperazin-1-yl)-pyridin-2-ylamino]-pyrrolo[2,1-f][1,2,4]triazin-7-yl}-phenyl)-methanesulfonamide]
–	–	< 100 nM	100 to 1000 nM	CN1CCN(c2ccc(Nc3ncc4c(Br)cc(-c5ccccc5)n4n3)cc2)CC1 [Example 100, (5-Bromo-7-phenyl-pyrrolo[2,1-f][1,2,4]triazin-2-yl)-[4-(4-methyl-piperazin-1-yl)-phenyl]-amine]
–	–	< 100 nM	100 to 1000 nM	CN1CCN(c2ccc(Nc3ncc4ccc(-c5ccccc5OCC(=O)N(C)C)n4n3)cc2)CC1 [Example 1403, N,N-Dimethyl-2-(2-{2-[4-(4-methyl-piperazin-1-yl)-phenylamino]-pyrrolo[2,1-f][1,2,4]triazin-7-yl}-phenoxy)-acetamide]
–	–	< 100 nM	> 10000 nM	COc1ccccc1-c1c(Br)c(Br)c2cnc(Nc3ccc(N4CCOCC4)cc3)nn12 [Example 110, [5,6-Dibromo-7-(2-methoxy-phenyl)-pyrrolo[2,1-f][1,2,4]triazin-2-yl]-(4-morpholin-4-yl-phenyl)-amine]
–	–	< 100 nM	100 to 1000 nM	CS(=O)(=O)Nc1cccc(-c2ccc3cnc(Nc4ccc5c(c4)CCC(N4CCOCC4)CC5)nn23)c1 (stereo not shown) [Example 382, N-{3-[2-(7-Morpholin-4-yl-6,7,8,9-tetrahydro-5H-benzocyclohepten-2-ylamino)-pyrrolo[2,1-f][1,2,4]triazin-7-yl]-phenyl}-methanesulfonamide]
–	–	< 100 nM	< 100 nM	COc1ccc(Cl)cc1-c1ccc2cnc(Nc3cccc(N4CCN(CCO)CC4)c3)nn12 [Example 180, 2-(4-{3-[7-(5-Chloro-2-methoxy-phenyl)-pyrrolo[2,1-f][1,2,4]triazin-2-ylamino]-phenyl}-piperazin-1-yl)-ethanol]
–	–	< 100 nM	100 to 1000 nM	CN1CCN(c2ccc(Nc3ncc4ccc(-c5cccc(C(=O)N6CCCC6)c5)n4n3)cc2)CC1 [Example 21, (3-{2-[4-(4-Methyl-piperazin-1-yl)-phenylamino]-pyrrolo[2,1-f][1,2,4]triazin-7-yl}-phenyl)-pyrrolidin-1-yl-methanone]
< 100 nM	100 to 1000 nM	–	–	CS(=O)(=O)CCNCc1cccc(-c2ccc3cnc(Nc4ccc(N5CCOCC5)cc4)nn23)c1 [Example 1209, (7-{3-[(2-Methanesulfonyl-ethylamino)-methyl]-phenyl}-pyrrolo[2,1-f][1,2,4]triazin-2-yl)-(4-morpholin-4-yl-phenyl)-amine]
–	–	100 to 1000 nM	< 100 nM	COc1cc(N2CCC(N3CCC(F)(F)CC3)CC2)ccc1Nc1ncc2ccc(-c3ccccc3N(C)S(C)(=O)=O)n2n1 [Example 1474, N-(2-{2-[4-(4,4-Difluoro-[1,4′]bipiperidinyl-1′-yl)-2-methoxy-phenylamino]-pyrrolo[2,1-f][1,2,4]triazin-7-yl}-phenyl)-N-methyl-methanesulfonamide]
